System: C5-1 antibody
Experiment: C5-1 antibody quantification by ELISA in agroinfiltrated leaves
Assay type: in vivo, Nicotiana benthamiana
Settings: ELISA; 1 mM, leaves treated 24 h before infiltration
Procedure: Forty-two day-old N. benthamiana plants grown in greenhouse were used for the experiments. Each plant was sprayed evenly with 50 ml of 0.5 mM, 1 mM or 2 mM MeJA in water containing 0.1% (v/v) Triton X-100 (Sigma-Aldrich, Mississauga ON, Canada), or with 50 ml of 1 mM arachidonic acid (Girard et al., 2007) in the same solvent, and transferred for seven days in a Conviron growth chamber (Conviron, Winnipeg MB, Canada). Plants sprayed with 50 ml of 0.1% (v/v) Triton X-100 in water were used in parallel as negative controls to avoid confounding effects due to experimental conditions. Two or three 1-cm^2 leaf discs were harvested from the third main stem leaf (see Robert et al., 2013) after seven days, as source material for protein and RNA extraction. The leaf samples were frozen immediately in liquid nitrogen and stored at −80° C. until protein or RNA extraction. Three to five biological (plant) replicates were used for each treatment, to allow for statistical treatment of the data. Two gene vectors were used for the agroinfiltration assays: an engineered pcambia2300 vector encoding the light and heavy chains of C5-1 fused to an N-terminal signal peptide sequence for cellular secretion (see Goulet et al., 2012 for details on gene construct); and the original (“empty”) pcambia2300 binary vector (CAMBIA, Canberra, Australia) as a control for agroinfection. The two binary vectors were electroporated into A. tumefaciens strain LBA4404 and the cultures were maintained in Luria-Bertani (LB) medium supplemented with 50 μg/ml kanamycin and 50 μg/ml rifampicin. For infiltration, bacteria were grown to stable phase at 28° C. to an OD600 of 1.0 and collected by centrifugation at 2,000 g. The bacterial pellets were resuspended in 10 mM 2-[N-morpholino] ethanesulfonic acid] (MES) buffer, pH 5.8, containing 100 μM acetosyringone and 10 mM MgCl2. Leaf infiltration was performed using a needle-less syringe as described earlier (D'Aoust et al., 2009), after mixing the C5-1 antibody (or empty vector) agrobacterial suspension with an equal volume of bacterial suspension carrying a binary vector for the protein silencing suppressor p19 (Voinnet et al., 2003). Infiltrated tissue for molecular characterization was collected six days post-infection (i.e. seven days post-MeJA or arachidonate treatment), unless otherwise indicated. Three to five biological (plant) replicates were used for each treatment to allow for statistical analyses. ELISA plates for C5-1 antibody quantification (Becton Dickinson, Mississauga ON, Canada) were coated with 3.75 μg/ml goat anti-mouse heavy chain-specific IgG1 (Sigma-Aldrich) in 50 mM carbonate buffer (pH 9.0) at 4° C. for 16-18 h. The plates were washed three times in 10 mM phosphate-buffered saline containing 0.1% (v/v) Tween 20 (PBS-T), blocked through a 1-h incubation at 37° C. in 1% (w/v) casein in phosphate-buffered saline (PBS) (Pierce, Rockford Ill., USA), and washed three times in PBS-T. A standard curve was generated for each plate with 0, 4, 8, 16, 24, 32, 40 and 60 ng/ml of purified mouse IgG1 (Sigma-Aldrich). All dilutions (controls and samples) were performed in a control extract obtained from leaf tissue infiltrated with a mock inoculum so that any matrix effect was eliminated. The plates were incubated with protein samples for 1 h at 37° C., washed three times in PBS-T and then incubated with peroxidase-conjugated goat anti-mouse IgG (H+L) antibodies (0.02 μg/ml in blocking solution) (Jackson ImmunoResearch) for 1 h at 37° C. After additional washes with PBS-T, the plates were incubated with the 3,3′,5,5′-tetramethylbenzidine Sure Blue peroxidase substrate (KPL, Gaithersburg Md., USA). The reaction was stopped by the addition of 1 N HCl and the absorbance was read at 450 nm. Three independent (biological) replicates were used for each assay.

CCCCC/C=C\C/C=C\C/C=C\C/C=C\CCCC(=O)O [arachidonic acid]
C5-1 yield change: No yield increase

Source: patent publication US10907168B2, “Jasmonic acid pathway activator” (MEDICAGO INC., priority 2015, dated 2021)
